# According to ChEMBL document CHEMBL1150838, “Cytotoxic constituents of the fruits of Cananga odorata” (J Nat Prod, 2001):
# How the values were obtained:
# HepG2 = assay: Cytotoxicity against human HepG2 cells by MTT assay; assay type: functional, cell-based
# [1] = Cytotoxicity against human HepG2(2.2.15) cells by MTT assay; assay type: functional, cell-based
Compound,IC50 (HepG2) [µg/mL],IC50 [1] [µg/mL]
C[C@@H]1O[C@@H](OC(C)(C)[C@@H]2CC[C@@]3(C)CCC[C@@](C)(O)[C@@H]3C2)[C@H](O)[C@H](O)[C@H]1O,0.01,0.36
Cc1ccnc2c1C(=O)c1ccccc1C2=O [CLEISTOPHOLINE],0.22,0.54
Cc1ccc2c(n1)C[C@H](C(C)(C)O)CC[C@H]2C [CANANODINE],0.22,3.8
CC1=C2C[C@H](C(C)(C)O)CC[C@@]2(C)CCC1,1.5,0.01
COc1cc(/C=C/C(=O)NCCc2ccc(O)cc2)ccc1O [N-TRANS-FERULOYL TYRAMINE],6.6,1.9
CC1=C2C[C@H](C(C)(C)O[C@@H]3O[C@@H](C)[C@H](O)[C@@H](O)[C@H]3O)CC[C@@]2(C)CCC1,3.9,10.6
